Measured values taken from patent US11186587B2, “Compound as ACC inhibitor and use thereof” (NANJING SANHOME PHARMACEUTICAL CO., LTD., priority 2017, dated 2021).
Like-named read-outs stand apart in the source and are kept apart here.

Legend:
ACC1 = ACC1 (Homo sapiens (Human), UniProt Q13085); experiment: ACC1 enzyme activity assay (ADP-Glo); type: biochemical; conditions: ACC1 enzyme 2 nM working solution, room temperature
Experimental: (§1) Compound preparation: the compounds of the present disclosure prepared in the above examples and the control compound were respectively formulated into 10 mM with DMSO for use.
(§2) Preparation of 1× reaction buffer (pH=7.4): HEPES stock solutions (1 M), MgCl2 (1 M), BRIJ-35 (10%), potassium citrate buffer (1 M), BSA (10 mg/mL) and DTT (500 mM) were formulated to enzyme reaction buffer containing HEPES (50 mM), MgCl2 (2 mM), BRIJ-35 (0.01%), potassium citrate buffer (2 mM), BSA (50 Gg/mL) and DTT (2 mM).
4.5 μL of 2.2×ACC1 enzyme (2 nM) working solution was added to a 384-well plate; and then 0.5 μL of different concentrations of compound were added. The mixture was incubated at room temperature for 15 min.
(§3) Negative control group: menstruum containing 5% DMSO; positive control group: menstruum containing 100 nM ND-630. The average values of each concentration and the positive and negative controls were calculated, and the standard deviation was calculated. […] The inhibition rate data was fitted by nonlinear regression equation to calculate IC50 of each compound. The nonlinear regression equation was Y=lowest value+(highest value−lowest value)/(1+10^((Log IC50−X)×HillSlope)), among which X is logarithm of the compound concentration and Y is inhibition percent (%).

ACC2 = ACC2 (Homo sapiens (Human), UniProt O00763); experiment: ACC2 enzyme activity assay (ADP-Glo); type: biochemical; conditions: ACC2 enzyme 1.1 nM working solution, room temperature
Experimental: as §1, §2
The mixture was incubated at room temperature for 15 min.
as §3

[1] = Evaluation of compound distribution in rat liver; type: in vivo; conditions: male SD rats, single oral 3 mg/kg, 0.25 h after administration; for Kp at 0.25 h: liver/plasma, read-out: Liver/plasma distribution ratio
Experimental: An acclimation period of 2-3 days was given before the experiments. The rats were fasted for 8-12 h before administration, supplied with water 2 h after administration and foods 4 h after administration.
6 mg of the test compound (based on free base) was weighed and added to 20 mL of ethanol-PEG400-saline (10:30:60). The mixture was vortexed for 2 min, and sonicated for 3 min, and then used to prepare a solution of test sample solution with a concentration of 0.3 mg/mL for oral administration. 100 μL of the test sample solution was volumed to 10 ng/mL with methanol, and a control sample of the same concentration was prepared. The concentrations of the test sample and control sample were detected by HPLC, and the accuracy was calculated.
SD rats were given a single oral administration of 3 mg/kg of test compound at a dose of 10 mL/kg. The rats were bled in femoral artery and ruptured in neck 0.25 h after administration. The liver and blood samples (anticoagulation with heparin sodium) were collected immediately, and placed on ice.
The homogenate was centrifuged (centrifugation conditions: 8000 rpm/min, 5 min, 4° C.). The supernatant was transferred and subjected to cryopreservation. The supernatant was thawed and centrifuged before injection, and the supernatant was collected and subjected to LC-MS/MS for analyzing the content of the compound in the supernatant sample.
The collected whole blood sample was placed on ice and centrifuged within 30 min (centrifugation conditions: 8000 rpm/min, 5 min, 4° C.). 100 μL of the upper layer of plasma was transferred, and precipitated with 300 μL of methanol. The mixture was shaken and centrifuged, and diluted with mobile phase. The supernatant was collected and subjected to LC-MS/MS for analyzing the content of the compound in the supernatant sample.

[2] = system: Col1A1 gene expression in TGF-β1-induced LX-2 cells; experiment: Inhibition of human hepatic stellate cells LX-2 activation in vitro (Col1A1 gene expression, real-time PCR); type: cell-based; conditions: TGFβ1 10 ng/mL, 24 h drug treatment, compound concentration of the tabulated value not stated (30, 10, 3 μM prepared)
Experimental: The compounds of the present disclosure prepared in the above examples and the control compound were respectively formulated into 60 mM with DMSO for use.
DMSO stock solution of the compounds of the examples of the present disclosure and the control compound were sequentially diluted with culture medium to 30 μM, 10 μM, and 3 μM. TGF-β1 was dissolved to […] with 10 mM citric acid buffer in the kit (PeproTech) according to the instructions, ready for use.
LX-2 cells were inoculated into a 6-well culture plate at a density of 2×10^5 cells/mL after cell passage. Each well contained 2 mL DMEM with 10% FBS. The cells were cultured at 37° C. in a 5% CO2 incubator, which was recorded as Day 1. After 24 h (Day 2), the cell confluence reached 70-80%, the old culture medium was discarded, and the serum-free DMEM was used to treat the cells as low serum starvation. The old culture medium was discarded at Day 3, and the culture medium or the culture medium containing different concentrations of the drug was added for continuing culture. There were control group (serum-free DMEM culture medium), TGFβ1 group, TGFβ1+ compound group. The TGFβ1 working concentration was 10 ng/mL. 24 h after the drug treatment (Day 4), the cell medium was discarded and the cells were washed once with precooled 1×PBS and then subjected to total RNA extraction.
2.3.1 Sample pretreatment: 1 mL of TransZOL Up reagent was added to each well of the 6-well plate, and the well plate was placed horizontally for a while to let the lysis buffer evenly spread on the cell surface and lyse the cells. The cells were blown with a pipette to make the cells completely detached. The lysate was transferred to a 2 mL RNase free centrifuge tube and repeatedly blown and sucked until no significant pieces in the lysate.
The extracted RNA was diluted to a concentration of 0.1 μg-0.5 μg (Total RNA ≤1 μg) based on the same mass. The total RNA in the reverse transcription system of each sample in the experiment was about 500 ng.
Two replicates were set for each sample, and the relative expression of the target gene was calculated by the program in the PCR machine.
The threshold of the Real Time PCR result was automatically set by the Real Time PCR detector system. The relative expression of the Col1A1 gene was calculated as follows. ΔCt (Col1A1 in drug treatment group)=Avg. Ct (Col1A1 in drug treatment group)−Avg. Ct (GAPDH in drug treatment group) ΔCt (Col1A1 in TGF group)=Avg. Ct (Col1A1 in TGF group)−Avg. Ct (GAPDH in TGF group) ΔCt (Col1A1 in Control group)=Avg. Ct (Col1A1 in Control group)−Avg. Ct (GAPDH in Control group) ΔΔCt=Average value of ΔCt (Col1A1 in TGF group/drug treatment group)−ΔCt (Col1A1 in Control group)
Formula for calculating the relative expression of Col1A1 gene: RQ=^2−ΔΔCt
Relative quantification results were obtained by automatically analysis of ABI 7500 real-time quantitative PCR machine.

[3] = liver, read-out: Concentration in Liver
[4] = plasma, read-out: Concentration in Plasma

Sequence of ACC2 (O00763 whole entry): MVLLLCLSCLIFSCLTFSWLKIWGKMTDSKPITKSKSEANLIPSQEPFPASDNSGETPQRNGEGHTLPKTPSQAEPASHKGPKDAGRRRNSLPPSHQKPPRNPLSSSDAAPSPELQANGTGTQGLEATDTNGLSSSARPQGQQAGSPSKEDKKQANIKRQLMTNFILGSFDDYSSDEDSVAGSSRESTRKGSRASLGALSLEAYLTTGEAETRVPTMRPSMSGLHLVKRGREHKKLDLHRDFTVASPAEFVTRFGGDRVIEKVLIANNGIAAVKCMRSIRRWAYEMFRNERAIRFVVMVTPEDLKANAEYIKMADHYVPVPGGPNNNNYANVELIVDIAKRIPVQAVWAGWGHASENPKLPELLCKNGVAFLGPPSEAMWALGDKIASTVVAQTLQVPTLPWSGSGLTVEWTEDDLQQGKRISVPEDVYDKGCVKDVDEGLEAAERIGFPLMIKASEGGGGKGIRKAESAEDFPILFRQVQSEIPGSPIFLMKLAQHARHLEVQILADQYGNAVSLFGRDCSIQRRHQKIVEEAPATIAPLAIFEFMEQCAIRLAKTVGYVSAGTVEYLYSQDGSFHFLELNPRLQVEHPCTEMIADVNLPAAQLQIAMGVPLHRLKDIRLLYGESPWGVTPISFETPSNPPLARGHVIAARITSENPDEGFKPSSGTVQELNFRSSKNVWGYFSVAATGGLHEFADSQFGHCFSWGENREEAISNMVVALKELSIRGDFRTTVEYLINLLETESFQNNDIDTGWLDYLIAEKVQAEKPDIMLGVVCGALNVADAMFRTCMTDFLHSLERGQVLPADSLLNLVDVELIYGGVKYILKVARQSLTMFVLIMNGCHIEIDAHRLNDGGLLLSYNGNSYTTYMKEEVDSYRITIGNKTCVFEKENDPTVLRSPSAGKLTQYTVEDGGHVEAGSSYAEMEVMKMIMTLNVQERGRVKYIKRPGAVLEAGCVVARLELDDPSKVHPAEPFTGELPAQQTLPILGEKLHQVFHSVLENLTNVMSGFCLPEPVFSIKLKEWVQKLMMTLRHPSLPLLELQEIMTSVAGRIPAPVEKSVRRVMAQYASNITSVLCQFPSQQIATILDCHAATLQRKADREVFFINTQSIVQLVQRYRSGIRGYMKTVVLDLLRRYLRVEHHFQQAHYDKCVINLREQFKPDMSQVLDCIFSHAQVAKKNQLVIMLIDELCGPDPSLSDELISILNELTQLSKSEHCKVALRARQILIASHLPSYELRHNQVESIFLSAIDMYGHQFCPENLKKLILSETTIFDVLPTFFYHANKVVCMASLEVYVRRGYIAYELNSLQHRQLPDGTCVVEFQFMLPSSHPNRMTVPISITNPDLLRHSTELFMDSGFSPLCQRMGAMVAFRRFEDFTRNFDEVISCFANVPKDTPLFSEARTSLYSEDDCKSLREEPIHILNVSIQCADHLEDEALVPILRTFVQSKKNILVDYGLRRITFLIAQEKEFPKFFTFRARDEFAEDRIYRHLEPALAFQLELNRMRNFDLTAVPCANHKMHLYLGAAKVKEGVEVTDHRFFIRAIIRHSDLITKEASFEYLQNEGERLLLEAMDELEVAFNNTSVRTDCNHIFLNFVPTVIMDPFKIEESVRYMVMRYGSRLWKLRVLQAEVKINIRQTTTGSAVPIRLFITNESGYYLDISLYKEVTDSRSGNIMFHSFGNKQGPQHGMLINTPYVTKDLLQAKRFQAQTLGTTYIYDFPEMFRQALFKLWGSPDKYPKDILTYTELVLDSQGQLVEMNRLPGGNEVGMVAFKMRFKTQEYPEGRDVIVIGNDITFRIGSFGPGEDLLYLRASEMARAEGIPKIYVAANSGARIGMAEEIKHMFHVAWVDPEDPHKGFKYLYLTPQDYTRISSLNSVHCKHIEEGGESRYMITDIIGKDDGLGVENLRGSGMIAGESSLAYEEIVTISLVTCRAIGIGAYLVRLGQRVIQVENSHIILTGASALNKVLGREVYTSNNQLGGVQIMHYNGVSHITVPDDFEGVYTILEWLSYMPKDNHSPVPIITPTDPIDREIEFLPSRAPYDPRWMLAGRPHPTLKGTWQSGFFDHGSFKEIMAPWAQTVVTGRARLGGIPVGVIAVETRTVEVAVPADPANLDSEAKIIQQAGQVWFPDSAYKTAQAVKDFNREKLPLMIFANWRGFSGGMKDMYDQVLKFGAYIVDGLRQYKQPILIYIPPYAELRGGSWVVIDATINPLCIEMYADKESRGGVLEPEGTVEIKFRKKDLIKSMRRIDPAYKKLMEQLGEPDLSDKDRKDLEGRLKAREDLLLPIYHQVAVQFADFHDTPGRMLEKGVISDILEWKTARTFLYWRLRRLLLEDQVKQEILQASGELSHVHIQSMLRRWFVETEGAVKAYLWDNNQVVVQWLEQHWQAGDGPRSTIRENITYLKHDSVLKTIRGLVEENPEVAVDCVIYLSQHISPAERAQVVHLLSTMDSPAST

IC50 (ACC1) | IC50 (ACC2) | concentration at 0.25 h [1, 3] | Kp at 0.25 h [1] | concentration at 0.25 h [1, 4] | Structure (SMILES) | Inhibition rate (%) of relative expression of the Col1A1 gene [2]
2.23 nM | 12.4 nM | 1460 ng/g | 75.5 | 19.3 ng/mL | COc1ccccc1C(Cn1c(=O)n(C2CN(C(C)=O)C2)c(=O)c2c(C)c(-c3ncco3)sc21)OC1CCOCC1 (stereo not shown) [Example 7] | 
3.06 nM | 5.12 nM | 3170 ng/g | 65.3 | 48.5 ng/mL | COc1ccccc1C(Cn1c(=O)n(-c2ccc(C(=O)O)cc2)c(=O)c2c(C)c(-c3ncco3)sc21)OC1CCOCC1 (stereo not shown) [Example 24, 4-(1-(2-(2-methoxyphenyl)-2-((tetrahydro-2H-pyran-4-yl)oxy)ethyl)-5-methyl-6-(oxazol-2-yl)-2,4-dioxo-1,4-dihydrothieno[2,3-d]pyrimidin-3(2H)-yl)benzoic Acid] | 
1.57 nM | 7.57 nM | 3200 ng/g | 151 | 21.2 ng/mL | COc1ccccc1C(Cn1c(=O)n(-c2cccc(C(=O)O)c2)c(=O)c2c(C)c(-c3ncco3)sc21)OC1CCOCC1 (stereo not shown) [Example 25, 3-(1-(2-(2-methoxyphenyl)-2-((tetrahydro-2H-pyran-4-yl)oxy)ethyl)-5-methyl-6-(oxazol-2-yl)-2,4-dioxo-1,4-dihydrothieno[2,3-d]pyrimidin-3(2H)-yl)benzoic Acid] | 62.94%
2.13 nM | 14.1 nM |  |  |  | COc1ccccc1C(Cn1c(=O)n(-c2cccc(C(=O)O)c2OC)c(=O)c2c(C)c(-c3ncco3)sc21)OC1CCOCC1 (stereo not shown) [Example 29, 2-Methoxy-3-(1-(2-(2-methoxyphenyl)-2-((tetrahydro-2H-pyran-4-yl)oxy)ethyl)-5-methyl-6-(oxazol-2-yl)-2,4-dioxo-1,4-dihydrothieno[2,3-d]pyrimidin-3(2H)-yl)benzoic Acid] | 

Second part, the compound before the results:

Structure (SMILES) | IC50 (ACC1) | IC50 (ACC2) | concentration at 0.25 h [1, 3] | Kp at 0.25 h [1] | concentration at 0.25 h [1, 4] | Inhibition rate (%) of relative expression of the Col1A1 gene [2]
COc1ccccc1C(Cn1c(=O)n(C2CC(C(=O)O)C2)c(=O)c2c(C)c(-c3ncco3)sc21)OC1CCOCC1 (stereo not shown) [Example 1, 3-(1-(2-(2-methoxyphenyl)-2-((tetrahydro-2H-pyran-4-yl)oxy)ethyl)-5-methyl-6-(oxazol-2-yl)-2,4-dioxo-1,4-dihydrothieno[2,3-d]pyrimidin-3(2H)-yl)cyclobutane-1-carboxylic Acid] | 0.69 nM | 5.13 nM | 4180 ng/g | 144 | 29.1 ng/mL | 
COc1ccccc1[C@H](Cn1c(=O)n([C@H]2C[C@@](C)(C(=O)O)C2)c(=O)c2c(C)c(-c3ncco3)sc21)OC1CCOCC1 [Example 4, (1S,3s)-3-(1-((R)-2-(2-methoxyphenyl)-2-((tetrahydro-2H-pyran-4-yl)oxy)ethyl)-5-methyl-6-(oxazol-2-yl)-2,4-dioxo-1,4-dihydrothieno[2,3-d]pyrimidine-3(2H)-yl)-1-methylcyclobutanecarboxylic Acid] | 0.68 nM | 3.16 nM | 4830 ng/g | 67.1 | 72.8 ng/mL | 78.54%
COc1ccccc1[C@H](Cn1c(=O)n(-c2ccc(C(=O)O)cc2)c(=O)c2c(C)c(-c3ncco3)sc21)OC1CCOCC1 [Example 24a, (R)-4-(1-(2-(2-methoxyphenyl)-2-((tetrahydro-2H-pyran-4-yl)oxy)ethyl)-5-methyl-6-(oxazol-2-yl)-2,4-dioxo-1,4-dihydrothieno[2,3-d]pyrimidin-3(2H)-yl)benzoic Acid] |  |  |  |  |  | 24.50%
COc1ccccc1[C@H](Cn1c(=O)n(-c2cccc(C3(C(=O)O)CC3)c2)c(=O)c2c(C)c(-c3ncco3)sc21)OC1CCOCC1 [Example 56] |  |  |  |  |  | 105.01%
